Consider 5 compounds from US12723063B2, “GIPR-agonist compounds” (Eli Lilly and Company, priority 2019, dated 2026).

One experiment deals with T1, human GIPR (Homo sapiens, UniProt P48546).
T1 construct: expressed in transfected cells; crude membranes
T1 sequence (P48546 22-466): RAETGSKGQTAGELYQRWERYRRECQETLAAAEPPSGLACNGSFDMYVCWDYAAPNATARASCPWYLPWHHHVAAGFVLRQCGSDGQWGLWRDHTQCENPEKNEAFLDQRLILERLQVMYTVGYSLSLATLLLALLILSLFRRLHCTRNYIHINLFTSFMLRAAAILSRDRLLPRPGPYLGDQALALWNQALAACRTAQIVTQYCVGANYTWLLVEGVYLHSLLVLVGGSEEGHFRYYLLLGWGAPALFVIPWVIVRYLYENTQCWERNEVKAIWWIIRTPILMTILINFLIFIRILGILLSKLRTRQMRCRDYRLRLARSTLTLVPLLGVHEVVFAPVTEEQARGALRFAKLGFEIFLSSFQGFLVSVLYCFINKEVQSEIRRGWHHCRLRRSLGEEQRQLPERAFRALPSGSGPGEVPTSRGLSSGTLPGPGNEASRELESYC
Description: [125I]-GIP binding, SPA with WGA beads, 0.1% bacitracin. Conditions: geometric mean, read-out: hGIPR Ki. The procedure, abridged: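 Ki values are geometric means (SEM, n independent days), derived from four-parameter nonlinear regression of IC50. Membranes came from hGIPR-expressing CHO cells.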

The target of another experiment is T2, human GcgR (Homo sapiens, UniProt P47871).
T2 construct: expressed in transfected cells; crude membranes
T2 sequence (P47871 26-477): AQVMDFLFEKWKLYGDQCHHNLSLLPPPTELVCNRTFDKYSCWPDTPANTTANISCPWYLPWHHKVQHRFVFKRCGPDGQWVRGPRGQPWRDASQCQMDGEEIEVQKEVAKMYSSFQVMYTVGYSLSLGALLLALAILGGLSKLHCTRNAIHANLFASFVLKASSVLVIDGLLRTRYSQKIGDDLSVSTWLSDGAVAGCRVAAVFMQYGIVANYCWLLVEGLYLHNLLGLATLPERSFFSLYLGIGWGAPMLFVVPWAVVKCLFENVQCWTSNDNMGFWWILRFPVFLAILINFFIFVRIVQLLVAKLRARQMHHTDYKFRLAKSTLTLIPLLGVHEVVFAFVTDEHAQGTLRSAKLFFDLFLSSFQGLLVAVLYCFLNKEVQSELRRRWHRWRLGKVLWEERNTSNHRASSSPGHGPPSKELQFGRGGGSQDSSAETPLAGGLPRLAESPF
Description: [125I]-Glucagon binding, SPA with WGA beads, 0.1% bacitracin. The settings on record: geometric mean, read-out: hGcgR Ki. A digest of the protocol: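 SPA competition binding with WGA beads on crude membranes from HEK293 cells stably expressing hGcgR. Buffer: 25 mM HEPES pH 7.4, 2.5 mM CaCl2, 1 mM MgCl2, 0.1% bacitracin, 0.003% Tween-20; 10-point 3-fold dilutions, NSB with 1 μM Gcg.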

For a further experiment, the target named is T3, human GLP-1R (Homo sapiens, UniProt P43220).
T3 construct: expressed in transfected cells; crude membranes
T3 sequence (P43220 24-463): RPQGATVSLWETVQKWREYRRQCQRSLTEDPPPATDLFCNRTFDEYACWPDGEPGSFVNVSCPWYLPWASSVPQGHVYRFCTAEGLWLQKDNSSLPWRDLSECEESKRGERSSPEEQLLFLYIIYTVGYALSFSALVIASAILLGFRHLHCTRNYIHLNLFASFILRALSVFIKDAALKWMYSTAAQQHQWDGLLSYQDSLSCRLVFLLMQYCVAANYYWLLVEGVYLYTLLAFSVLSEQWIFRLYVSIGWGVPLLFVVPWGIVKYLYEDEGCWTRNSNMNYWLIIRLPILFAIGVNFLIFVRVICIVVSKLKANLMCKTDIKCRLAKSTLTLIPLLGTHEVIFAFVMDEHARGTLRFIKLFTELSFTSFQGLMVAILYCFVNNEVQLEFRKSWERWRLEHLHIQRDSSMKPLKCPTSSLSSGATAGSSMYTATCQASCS
Description: [125I]-GLP-1 binding, SPA with WGA beads, 0.1% bacitracin. The settings on record: geometric mean, read-out: hGLP1R Ki. The procedure, abridged:
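Binding buffer was 25 mM HEPES pH 7.4 with 2.5 mM CaCl2, 1 mM MgCl2, 0.1% (w/v) bacitracin, 0.003% Tween-20 and EDTA-free protease inhibitors. Four-parameter regression gave IC50, converted to Ki (geometric mean, SEM, n independent days).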

Broadly, the Ki is a dissociation constant, usually derived from enzyme kinetics or from competition with a known ligand.

*1 amine or outer side, *2 acyl side, *3 side chain or, on linkers, in order; H or OH if unused. Where a SMILES comes first, the peptide text is derived from it. Side-chain parts run from the residue outwards. [ ]: non-standard residue; d: D form. The star is where a group is joined. C20 diacid = O=C(O)CCCCCCCCCCCCCCCCCCC(=O)*; γGlu = O=C(O)[C@H](CCC(=O)[*:2])N[*:1]; 4Pal = N[C@@H](Cc1ccncc1)C(=O)O; αMeL = CC(C)C[C@](C)(N)C(=O)O; Iva = CC[C@](C)(N)C(=O)O; AEEA = NCCOCCOCC(=O)O; Aib = CC(C)(N)C(=O)O

As to `CC[C@H](C)[C@H](NC(=O)[C@H](Cc1ccccc1)NC(=O)[C@@H](NC(=O)CNC(=O)[C@H](CCC(=O)O)NC(=O)C(C)(C)NC(=O)[C@@H](N)Cc1ccc(O)cc1)[C@@H](C)O)C(=O)N[C@@H](CO)C(=O)N[C@@H](CC(=O)O)C(=O)N[C@@H](Cc1ccc(O)cc1)C(=O)N[C@@H](CO)C(=O)N[C@H](C(=O)N[C@@](C)(CC(C)C)C(=O)N[C@@H](CC(C)C)C(=O)N[C@@H](CC(=O)O)C(=O)N[C@@H](CCCCN)C(=O)N[C@@H](CCCCNC(=O)COCCOCCNC(=O)COCCOCCNC(=O)CC[C@H](NC(=O)CCCCCCCCCCCCCCCCCCC(=O)O)C(=O)O)C(=O)N[C@@H](Cc1c[nH]cn1)C(=O)N[C@@H](CCC(N)=O)C(=O)NC(C)(C)C(=O)N[C@@H](CC(=O)O)C(=O)N[C@@H](Cc1ccccc1)C(=O)N[C@H](C(=O)N[C@@H](CCC(=O)O)C(=O)N[C@@H](Cc1c[nH]c2ccccc12)C(=O)N[C@@H](CC(C)C)C(=O)N[C@@H](CC(C)C)C(=O)N[C@@H](C)C(=O)NCC(=O)NCC(=O)N1CCC[C@H]1C(=O)N[C@@H](CO)C(=O)N[C@@H](CO)C(=O)NCC(=O)N[C@@H](C)C(=O)N1CCC[C@H]1C(=O)N1CCC[C@H]1C(=O)N1CCC[C@H]1C(=O)N[C@@H](CO)C(N)=O)C(C)C)[C@@H](C)CC` [Example 54] (H-Y[Aib]EGTFISDYSI[αMeL]LDKK([AEEA-AEEA-γGlu-C20 diacid])HQ[Aib]DFVEWLLAGGPSSGAPPPS-NH2), the Ki on human GIPR stood at 0.0326 nM; on human GcgR, 386 nM; on human GLP-1R, 49.9 nM.

With `CC[C@H](C)[C@H](NC(=O)[C@H](CO)NC(=O)[C@H](Cc1ccc(O)cc1)NC(=O)[C@H](CC(=O)O)NC(=O)[C@H](CO)NC(=O)[C@@H](NC(=O)[C@](C)(CC)NC(=O)[C@@H](NC(=O)CNC(=O)[C@H](CCC(=O)O)NC(=O)C(C)(C)NC(=O)[C@@H](N)Cc1ccc(O)cc1)[C@@H](C)O)[C@@H](C)CC)C(=O)N[C@@](C)(CC(C)C)C(=O)N[C@@H](CC(C)C)C(=O)N[C@@H](CC(=O)O)C(=O)N[C@@H](CCCCN)C(=O)N[C@@H](CCCCNC(=O)COCCOCCNC(=O)COCCOCCNC(=O)CC[C@H](NC(=O)CCCCCCCCCCCCCCCCCCC(=O)O)C(=O)O)C(=O)N[C@@H](Cc1c[nH]cn1)C(=O)N[C@@H](CCC(N)=O)C(=O)NC(C)(C)C(=O)N[C@@H](CC(=O)O)C(=O)N[C@@H](Cc1ccccc1)C(=O)N[C@H](C(=O)N[C@@H](CCC(=O)O)C(=O)N[C@@H](Cc1ccncc1)C(=O)N[C@@H](CC(C)C)C(=O)N[C@@H](CC(C)C)C(=O)N[C@@H](C)C(=O)NCC(=O)NCC(=O)N1CCC[C@H]1C(=O)N[C@@H](CO)C(=O)N[C@@H](CO)C(=O)NCC(=O)N[C@@H](C)C(=O)N1CCC[C@H]1C(=O)N1CCC[C@H]1C(=O)N1CCC[C@H]1C(=O)N[C@@H](CO)C(N)=O)C(C)C` [Example 55] (H-Y[Aib]EGT[Iva]ISDYSI[αMeL]LDKK([AEEA-AEEA-γGlu-C20 diacid])HQ[Aib]DFVE[4Pal]LLAGGPSSGAPPPS-NH2), the results for the Ki at human GIPR, at human GcgR and at human GLP-1R were 0.0331 nM, greater than 960 nM and 262 nM, respectively.

Consider `CC[C@H](C)[C@H](NC(=O)[C@H](Cc1ccccc1)NC(=O)[C@@H](NC(=O)CNC(=O)[C@H](CCC(=O)O)NC(=O)C(C)(C)NC(=O)[C@@H](N)Cc1ccc(O)cc1)[C@@H](C)O)C(=O)N[C@@H](CO)C(=O)N[C@@H](CC(=O)O)C(=O)N[C@@H](Cc1ccc(O)cc1)C(=O)N[C@@H](CO)C(=O)N[C@H](C(=O)N[C@@](C)(CC(C)C)C(=O)N[C@@H](CC(C)C)C(=O)N[C@@H](CC(=O)O)C(=O)N[C@@H](CCCCN)C(=O)N[C@@H](CCCCNC(=O)COCCOCCNC(=O)COCCOCCNC(=O)CC[C@H](NC(=O)CCCCCCCCCCCCCCCCCCC(=O)O)C(=O)O)C(=O)N[C@@H](Cc1c[nH]cn1)C(=O)N[C@@H](CCC(N)=O)C(=O)NC(C)(C)C(=O)N[C@@H](CC(=O)O)C(=O)N[C@@](C)(Cc1ccccc1)C(=O)N[C@H](C(=O)N[C@@H](CCC(=O)O)C(=O)N[C@@H](Cc1ccncc1)C(=O)N[C@@H](CC(C)C)C(=O)N[C@@H](CC(C)C)C(=O)N[C@@H](C)C(=O)NCC(=O)NCC(=O)N1CCC[C@H]1C(=O)N[C@@H](CO)C(=O)N[C@@H](CO)C(=O)NCC(=O)N[C@@H](C)C(=O)N1CCC[C@H]1C(=O)N1CCC[C@H]1C(=O)N1CCC[C@H]1C(=O)N[C@@H](CO)C(N)=O)C(C)C)[C@@H](C)CC` [Example 56], for which the figures for the Ki at human GIPR, on human GcgR and at human GLP-1R were 0.0487 nM, 193 nM and 530 nM, respectively.

As for `CC[C@H](C)[C@H](NC(=O)[C@H](Cc1ccccc1)NC(=O)[C@@H](NC(=O)CNC(=O)[C@H](CCC(=O)O)NC(=O)C(C)(C)NC(=O)[C@@H](N)Cc1ccc(O)cc1)[C@@H](C)O)C(=O)N[C@@H](CO)C(=O)N[C@@H](CC(=O)O)C(=O)N[C@@H](Cc1ccc(O)cc1)C(=O)N[C@@H](CO)C(=O)N[C@H](C(=O)N[C@@](C)(CC(C)C)C(=O)N[C@@H](CC(C)C)C(=O)N[C@@H](CC(=O)O)C(=O)N[C@@H](CCCCN)C(=O)N[C@@H](CCCCNC(=O)COCCOCCNC(=O)COCCOCCNC(=O)CC[C@H](NC(=O)CCCCCCCCCCCCCCCCCCC(=O)O)C(=O)O)C(=O)N[C@@H](Cc1c[nH]cn1)C(=O)N[C@@H](CCC(N)=O)C(=O)NC(C)(C)C(=O)N[C@@H](CCC(=O)O)C(=O)N[C@@H](Cc1ccccc1)C(=O)N[C@H](C(=O)N[C@@H](CCC(=O)O)C(=O)N[C@@H](Cc1ccncc1)C(=O)N[C@@H](CC(C)C)C(=O)N[C@@H](CC(C)C)C(=O)N[C@@H](C)C(=O)N[C@@H](CCC(N)=O)C(=O)NCC(=O)N1CCC[C@H]1C(=O)N[C@@H](CO)C(=O)N[C@@H](CO)C(=O)NCC(=O)N[C@@H](C)C(=O)N1CCC[C@H]1C(=O)N1CCC[C@H]1C(=O)N1CCC[C@H]1C(=O)N[C@@H](CO)C(N)=O)C(C)C)[C@@H](C)CC` [Example 57] (H-Y[Aib]EGTFISDYSI[αMeL]LDKK([AEEA-AEEA-γGlu-C20 diacid])HQ[Aib]EFVE[4Pal]LLAQGPSSGAPPPS-NH2), the inhibition constant (Ki) at human GIPR was 0.0154 nM; at human GcgR, 422 nM; at human GLP-1R, 280 nM.

Take `CC[C@H](C)[C@H](NC(=O)[C@H](Cc1ccccc1)NC(=O)[C@@H](NC(=O)CNC(=O)[C@H](CCC(=O)O)NC(=O)C(C)(C)NC(=O)[C@@H](N)Cc1ccc(O)cc1)[C@@H](C)O)C(=O)N[C@@H](CO)C(=O)N[C@@H](CC(=O)O)C(=O)N[C@@H](Cc1ccc(O)cc1)C(=O)N[C@@H](CO)C(=O)N[C@H](C(=O)N[C@@](C)(CC(C)C)C(=O)N[C@@H](CC(C)C)C(=O)N[C@@H](CC(=O)O)C(=O)N[C@@H](CCCCN)C(=O)N[C@@H](CCCCNC(=O)COCCOCCNC(=O)COCCOCCNC(=O)CC[C@H](NC(=O)CCCCCCCCCCCCCCCCCCC(=O)O)C(=O)O)C(=O)N[C@@H](Cc1c[nH]cn1)C(=O)N[C@@H](CCC(N)=O)C(=O)NC(C)(C)C(=O)N[C@@H](CCC(=O)O)C(=O)N[C@@H](Cc1ccccc1)C(=O)N[C@H](C(=O)N[C@@H](CCC(=O)O)C(=O)N[C@@H](Cc1ccncc1)C(=O)N[C@@H](CC(C)C)C(=O)N[C@@H](CC(C)C)C(=O)N[C@@H](C)C(=O)N[C@H](C(=O)NCC(=O)N1CCC[C@H]1C(=O)N[C@@H](CO)C(=O)N[C@@H](CO)C(=O)NCC(=O)N[C@@H](C)C(=O)N1CCC[C@H]1C(=O)N1CCC[C@H]1C(=O)N1CCC[C@H]1C(=O)N[C@@H](CO)C(N)=O)[C@@H](C)O)C(C)C)[C@@H](C)CC` [Example 58] (H-Y[Aib]EGTFISDYSI[αMeL]LDKK([AEEA-AEEA-γGlu-C20 diacid])HQ[Aib]EFVE[4Pal]LLATGPSSGAPPPS-NH2): the inhibition constant (Ki) at human GIPR amounted to 0.0324 nM; at human GcgR it was 418 nM; on human GLP-1R, 459 nM.
